# Laboratory results reported in ChEMBL document CHEMBL3576831, “Discovery of a Selective TRPM8 Antagonist with Clinical Efficacy in Cold-Related Pain” (ACS Med Chem Lett, 2015).
# Active and inactive are the calls of the source. The rule behind the calls is not given here.
# Assays:
# Canis familiaris = assay: Unbound clearance in beagle dog at 0.2 mg/kg, iv; assay type: ADME, organism-based, Canis lupus familiaris; settings: in vivo
# [1] = Oral bioavailability in beagle dog at 20 mg/kg; assay type: ADME, organism-based, Canis lupus familiaris; settings: in vivo
# [2] = molecular target: T1, Transient receptor potential cation channel subfamily M member 8 (Homo sapiens, UniProt Q7Z2W7); assay: Antagonist activity against human recombinant TRPM8 expressed in CHO T-rex cells assessed as inhibition of WS12-induced calcium response pre-incubated for 20 mins before WS12 addition; assay type: cell-based
# [3] = Lipophilicity, log D of the compound; assay type: physicochemical; settings: octanol/water
# [4] = Half life in beagle dog at 0.2 mg/kg, iv; assay type: ADME, organism-based, Canis lupus familiaris; settings: in vivo
# [5] = Oral bioavailability in rat at 10 mg/kg; assay type: ADME, organism-based; settings: in vivo
# [6] = Efflux ratio in MDCK cells; assay type: ADME, cell-based, Canis lupus familiaris; settings: dog
# [7] = Oral absorption in rat at 10 mg/kg; assay type: ADME, organism-based; settings: in vivo
# Hepatocyte = assay: Intrinsic clearance in human hepatocytes assessed per million cells; assay type: ADME, cell-based
# [8] = Fraction unbound in rat plasma; assay type: ADME, cell-free
# [9] = Half life in rat; assay type: ADME, organism-based; settings: in vivo
# [10] = Volume of distribution at steady state in beagle dog at 0.2 mg/kg, iv; assay type: ADME, organism-based, Canis lupus familiaris; settings: in vivo, read-out: Vdss
# [11] = Fraction unbound in guinea pig plasma; assay type: ADME, cell-free, Cavia porcellus
# [12] = Oral bioavailability in rat at 2 mg/kg; assay type: ADME, organism-based; settings: in vivo
# Cavia porcellus = species on record: Cavia porcellus; assay: Analgesic effect in guinea pig model of cold-induced bladder contractility assessed as maximum unbound concentration to causing therapeutic efficacy; assay type: functional
# [13] = Clearance in rat; assay type: ADME, organism-based; settings: in vivo
# [14] = Fraction unbound in dog plasma; assay type: ADME, cell-free, Canis lupus familiaris
# CYP1A2 = molecular target: T2, CYP1A2 (Homo sapiens, UniProt P05177); assay: Inhibition of CYP1A2 (unknown origin) at 3 uM; assay type: ADME
# T2 sequence (P05177 whole entry): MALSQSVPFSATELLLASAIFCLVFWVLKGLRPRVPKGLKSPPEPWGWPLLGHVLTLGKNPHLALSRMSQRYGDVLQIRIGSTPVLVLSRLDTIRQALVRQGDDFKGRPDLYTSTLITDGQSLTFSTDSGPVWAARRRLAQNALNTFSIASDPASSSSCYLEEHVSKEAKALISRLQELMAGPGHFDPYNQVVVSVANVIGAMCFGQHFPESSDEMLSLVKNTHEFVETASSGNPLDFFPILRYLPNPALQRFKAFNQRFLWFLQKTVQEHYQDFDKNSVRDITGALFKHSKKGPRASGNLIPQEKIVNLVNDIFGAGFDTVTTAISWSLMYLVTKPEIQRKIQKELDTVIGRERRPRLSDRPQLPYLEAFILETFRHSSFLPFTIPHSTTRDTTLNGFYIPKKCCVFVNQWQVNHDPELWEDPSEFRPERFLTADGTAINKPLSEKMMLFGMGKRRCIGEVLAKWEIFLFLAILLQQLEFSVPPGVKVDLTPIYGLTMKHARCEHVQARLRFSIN
# [15] = Permeability in RRCK cells; assay type: ADME, cell-based, Canis lupus familiaris, MDCKII-LE; settings: dog, MDCK; read-out: permeability
# CYP2C8 = molecular target: T3, CYP2C8 (Homo sapiens, UniProt P10632); assay: Inhibition of CYP2C8 (unknown origin) at 3 uM; assay type: ADME
# T3 sequence (P10632 whole entry): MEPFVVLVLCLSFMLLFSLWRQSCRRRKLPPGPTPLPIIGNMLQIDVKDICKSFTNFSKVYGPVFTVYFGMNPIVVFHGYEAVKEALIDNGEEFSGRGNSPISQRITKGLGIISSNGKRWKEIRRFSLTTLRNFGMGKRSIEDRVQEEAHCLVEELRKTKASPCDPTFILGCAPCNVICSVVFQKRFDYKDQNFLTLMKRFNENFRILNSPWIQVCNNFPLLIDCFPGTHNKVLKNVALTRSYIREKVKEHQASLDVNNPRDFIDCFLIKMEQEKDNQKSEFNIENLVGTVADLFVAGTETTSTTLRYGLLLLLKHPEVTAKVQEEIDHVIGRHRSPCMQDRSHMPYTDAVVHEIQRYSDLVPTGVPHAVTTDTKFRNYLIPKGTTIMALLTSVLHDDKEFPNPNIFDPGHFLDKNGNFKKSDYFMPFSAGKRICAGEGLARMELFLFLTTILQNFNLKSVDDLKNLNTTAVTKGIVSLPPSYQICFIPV
# [16] = Oral absorption in rat at 2 mg/kg; assay type: ADME, organism-based; settings: in vivo
# [17] = Volume of distribution at steady state in rat; assay type: ADME, organism-based; settings: in vivo, read-out: Vdss
# [18] = Clearance in beagle dog at 0.2 mg/kg, iv; assay type: ADME, organism-based, Canis lupus familiaris; settings: in vivo
# Liver microsome = assay: Intrinsic clearance in rat liver microsomes; assay type: ADME
# [19] = Intrinsic clearance in human liver microsomes; assay type: ADME; settings: read-out: CLH
# [20] = molecular target: T1, Transient receptor potential cation channel subfamily M member 8; assay: Antagonist activity against human TRPM8 by single cell patch clamp electrophysiology
# Homo sapiens [21] = species on record: Homo sapiens; assay: Selectivity for human TRPM8 over TRPV1 (unknown origin)
# Homo sapiens [22] = assay: Toxicity in human assessed as induction of nontolerated hot sensation localized to mouth, face, upper body, arms and hands at 900 mg administered as single dose during cold pressor test; assay type: organism-based; settings: in vivo
# [23] = Oral absorption in beagle dog at 20 mg/kg; assay type: ADME, organism-based, Canis lupus familiaris; settings: in vivo
# CYP2D6 = CYP2D6 (Homo sapiens, UniProt P10635); assay: Inhibition of CYP2D6 (unknown origin) at 3 uM; assay type: ADME
# Homo sapiens [24] = species on record: Homo sapiens; assay: Selectivity for human TRPM8 over TRPA1 (unknown origin)
# CYP2C9 = CYP2C9 (Homo sapiens, UniProt P11712); assay: Inhibition of CYP2C9 (unknown origin) at 3 uM; assay type: ADME
# CYP3A4 = CYP3A4 (Homo sapiens, UniProt P08684); assay: Inhibition of CYP3A4 (unknown origin) at 3 uM; assay type: ADME
# Rattus norvegicus [25] = species on record: Rattus norvegicus; assay: Drug metabolism in bile-duct cannulated rat assessed as formation of acyl glucuronide formation; assay type: ADME, organism-based; settings: in vivo
# [26] = Fraction unbound in human plasma; assay type: ADME, cell-free
# Homo sapiens [27] = assay: Toxicity in human assessed as effect on core body temperature up to 900 mg administered as single dose during cold pressor test; assay type: organism-based; settings: in vivo
# [28] = molecular target: T4, Voltage-gated inwardly rectifying potassium channel KCNH2 (Homo sapiens, UniProt Q12809); assay: Inhibition of human ERG
# [29] = molecular target: T4, Voltage-gated inwardly rectifying potassium channel KCNH2; assay: Inhibition of dofetilide binding to human ERG
# Rattus norvegicus [30] = species on record: Rattus norvegicus; assay: Unbound clearance in rat; assay type: ADME, organism-based; settings: in vivo
# Homo sapiens [31] = assay: Analgesic effect in human at 900 mg administered as single dose by cold pressor test; assay type: functional, organism-based
# T4 sequence (Q12809 whole entry): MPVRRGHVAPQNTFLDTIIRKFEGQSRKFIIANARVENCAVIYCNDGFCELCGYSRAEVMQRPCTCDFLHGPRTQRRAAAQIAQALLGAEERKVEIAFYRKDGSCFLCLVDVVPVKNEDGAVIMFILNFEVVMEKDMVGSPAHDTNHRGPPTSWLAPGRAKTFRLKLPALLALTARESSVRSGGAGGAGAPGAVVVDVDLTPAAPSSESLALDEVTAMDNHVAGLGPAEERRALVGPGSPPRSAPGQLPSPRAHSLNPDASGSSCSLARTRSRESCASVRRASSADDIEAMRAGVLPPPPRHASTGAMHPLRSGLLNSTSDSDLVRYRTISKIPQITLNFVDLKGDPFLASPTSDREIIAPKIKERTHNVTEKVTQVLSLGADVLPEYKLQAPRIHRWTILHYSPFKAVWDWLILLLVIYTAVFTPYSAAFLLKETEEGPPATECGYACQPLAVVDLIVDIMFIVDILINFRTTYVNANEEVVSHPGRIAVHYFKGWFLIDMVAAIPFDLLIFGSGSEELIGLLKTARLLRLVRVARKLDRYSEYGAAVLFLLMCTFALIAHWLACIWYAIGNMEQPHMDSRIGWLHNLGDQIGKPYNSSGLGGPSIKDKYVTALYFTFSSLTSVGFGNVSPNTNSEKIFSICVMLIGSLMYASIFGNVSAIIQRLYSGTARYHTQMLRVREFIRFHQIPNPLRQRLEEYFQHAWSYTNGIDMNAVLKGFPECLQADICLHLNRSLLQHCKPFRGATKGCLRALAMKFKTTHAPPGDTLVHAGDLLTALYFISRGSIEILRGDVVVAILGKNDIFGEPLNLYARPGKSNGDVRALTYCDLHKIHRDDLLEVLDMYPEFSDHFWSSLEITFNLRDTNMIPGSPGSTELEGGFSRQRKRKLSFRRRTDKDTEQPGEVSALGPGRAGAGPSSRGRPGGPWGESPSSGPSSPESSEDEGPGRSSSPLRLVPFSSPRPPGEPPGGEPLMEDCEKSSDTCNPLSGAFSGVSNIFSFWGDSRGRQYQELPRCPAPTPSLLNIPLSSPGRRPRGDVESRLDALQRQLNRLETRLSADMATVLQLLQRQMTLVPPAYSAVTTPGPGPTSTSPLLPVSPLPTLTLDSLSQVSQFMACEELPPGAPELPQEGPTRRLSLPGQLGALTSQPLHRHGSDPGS
# T1 sequence (Q7Z2W7 whole entry): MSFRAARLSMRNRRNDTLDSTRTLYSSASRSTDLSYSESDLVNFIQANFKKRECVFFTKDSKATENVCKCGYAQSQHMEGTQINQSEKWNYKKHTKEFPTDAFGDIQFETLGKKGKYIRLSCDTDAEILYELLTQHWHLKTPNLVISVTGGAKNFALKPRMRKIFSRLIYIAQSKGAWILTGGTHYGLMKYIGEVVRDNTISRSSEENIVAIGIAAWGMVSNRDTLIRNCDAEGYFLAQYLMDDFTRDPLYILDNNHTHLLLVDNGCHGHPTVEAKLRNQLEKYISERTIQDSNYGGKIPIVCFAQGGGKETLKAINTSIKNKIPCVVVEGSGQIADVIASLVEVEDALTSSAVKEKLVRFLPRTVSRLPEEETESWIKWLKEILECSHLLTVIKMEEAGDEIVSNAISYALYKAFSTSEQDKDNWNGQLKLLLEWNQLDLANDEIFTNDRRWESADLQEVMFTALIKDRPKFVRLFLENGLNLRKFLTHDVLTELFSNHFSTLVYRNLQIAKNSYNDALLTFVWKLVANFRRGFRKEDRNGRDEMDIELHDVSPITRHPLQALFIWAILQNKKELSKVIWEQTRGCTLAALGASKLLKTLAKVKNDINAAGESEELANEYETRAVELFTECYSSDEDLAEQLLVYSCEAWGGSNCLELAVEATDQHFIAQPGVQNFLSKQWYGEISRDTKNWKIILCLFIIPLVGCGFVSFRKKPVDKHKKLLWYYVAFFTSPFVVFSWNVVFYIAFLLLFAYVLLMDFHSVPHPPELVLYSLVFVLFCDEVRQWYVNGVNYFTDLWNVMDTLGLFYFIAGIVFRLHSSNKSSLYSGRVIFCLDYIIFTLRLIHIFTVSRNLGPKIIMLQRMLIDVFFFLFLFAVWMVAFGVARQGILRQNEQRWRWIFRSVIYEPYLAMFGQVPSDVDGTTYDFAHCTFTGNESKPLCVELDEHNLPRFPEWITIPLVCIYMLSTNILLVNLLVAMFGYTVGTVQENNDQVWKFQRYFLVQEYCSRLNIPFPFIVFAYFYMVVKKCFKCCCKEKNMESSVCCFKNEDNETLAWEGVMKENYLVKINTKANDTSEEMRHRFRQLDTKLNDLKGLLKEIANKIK
# Sequence of CYP2D6 (P10635 whole entry): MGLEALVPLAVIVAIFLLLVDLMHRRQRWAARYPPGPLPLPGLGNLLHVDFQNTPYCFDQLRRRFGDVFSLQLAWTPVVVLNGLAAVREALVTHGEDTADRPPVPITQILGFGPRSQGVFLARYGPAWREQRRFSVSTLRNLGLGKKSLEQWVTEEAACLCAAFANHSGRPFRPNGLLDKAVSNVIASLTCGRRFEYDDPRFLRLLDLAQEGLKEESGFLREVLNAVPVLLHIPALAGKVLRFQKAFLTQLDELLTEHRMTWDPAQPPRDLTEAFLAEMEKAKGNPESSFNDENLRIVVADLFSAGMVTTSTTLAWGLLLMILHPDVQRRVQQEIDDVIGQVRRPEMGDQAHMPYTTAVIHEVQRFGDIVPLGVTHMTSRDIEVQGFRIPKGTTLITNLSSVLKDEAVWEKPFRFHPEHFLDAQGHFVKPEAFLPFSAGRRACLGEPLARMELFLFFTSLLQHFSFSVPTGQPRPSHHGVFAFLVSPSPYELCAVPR
# Sequence of CYP2C9 (P11712 whole entry): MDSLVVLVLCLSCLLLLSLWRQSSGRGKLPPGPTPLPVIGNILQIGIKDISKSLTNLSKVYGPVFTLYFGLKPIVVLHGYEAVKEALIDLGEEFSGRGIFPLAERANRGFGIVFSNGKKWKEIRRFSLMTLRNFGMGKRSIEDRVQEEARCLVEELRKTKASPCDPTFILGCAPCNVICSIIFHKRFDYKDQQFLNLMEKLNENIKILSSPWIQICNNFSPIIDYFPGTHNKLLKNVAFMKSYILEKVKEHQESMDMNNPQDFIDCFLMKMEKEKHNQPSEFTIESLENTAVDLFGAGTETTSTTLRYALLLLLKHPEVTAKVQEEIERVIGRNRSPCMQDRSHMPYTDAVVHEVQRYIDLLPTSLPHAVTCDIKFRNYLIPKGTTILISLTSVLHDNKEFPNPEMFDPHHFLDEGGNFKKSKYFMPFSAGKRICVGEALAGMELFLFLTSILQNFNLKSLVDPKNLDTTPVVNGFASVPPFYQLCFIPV
# Sequence of CYP3A4 (P08684 whole entry): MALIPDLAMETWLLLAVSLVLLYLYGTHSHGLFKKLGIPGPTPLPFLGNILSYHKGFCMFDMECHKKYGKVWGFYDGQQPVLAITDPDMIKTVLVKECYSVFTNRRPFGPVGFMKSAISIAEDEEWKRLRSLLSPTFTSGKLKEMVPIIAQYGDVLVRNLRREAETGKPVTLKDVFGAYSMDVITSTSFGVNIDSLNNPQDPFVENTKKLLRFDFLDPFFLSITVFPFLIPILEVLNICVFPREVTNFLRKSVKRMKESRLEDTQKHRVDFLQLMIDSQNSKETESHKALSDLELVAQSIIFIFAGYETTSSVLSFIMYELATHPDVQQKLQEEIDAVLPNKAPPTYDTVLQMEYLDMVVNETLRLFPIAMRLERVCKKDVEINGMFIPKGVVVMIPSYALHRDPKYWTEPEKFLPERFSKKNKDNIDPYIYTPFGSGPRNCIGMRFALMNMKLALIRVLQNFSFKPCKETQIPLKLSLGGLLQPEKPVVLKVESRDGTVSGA
smiles,measurement,setting,value
C[C@H](c1ccc(F)cc1)N(Cc1cccc(C(=O)O)c1)C(=O)c1cnc2ccccc2c1 [PF-05105679],CL free,Canis familiaris,462 mL/min/kg
same,bioavailability,[1],92%
same,IC50,[2],181 nM
same,logD,[3],1
same,half-life,[4],3.9 h
same,bioavailability,[5],62%
same,efflux ratio,[6],4.8
same,Fa,[7],100%
same,hepatocyte intrinsic clearance,Hepatocyte,< 15 µL/min/million cells
same,fraction unbound,[8],0.033
same,half-life,[9],3.6 h
same,Vd,[10],7.4 L/kg
same,fraction unbound,[11],0.07
same,bioavailability,[12],29%
same,fCmax,Cavia porcellus,254 nM
same,clearance,[13],19.8 mL/min/kg
same,fraction unbound,[14],0.067
same,inhibition at 3 µM,CYP1A2,0%
same,Papp,[15],6.8 ×10⁻⁶ cm/s
same,inhibition at 3 µM,CYP2C8,0%
same,Fa,[16],46%
same,Vd,[17],6.2 L/kg
same,clearance,[18],31 mL/min/kg
same,microsomal CLint,Liver microsome,17 µL/min/mg
same,microsomal CLint,[19],< 8 µL/min/mg
same,IC50,[20],103 nM
same,Selectivity ratio,Homo sapiens [21],> 100
same,Activity,Homo sapiens [22],Toxic
same,Fa,[23],100%
same,inhibition at 3 µM,CYP2D6,0%
same,Selectivity ratio,Homo sapiens [24],> 100
same,inhibition at 3 µM,CYP2C9,0%
same,inhibition at 3 µM,CYP3A4,0%
same,Drug metabolism,Rattus norvegicus [25],metabolite_detected
same,fraction unbound,[26],0.012
same,Activity,Homo sapiens [27],Non-toxic
same,IC50,[28],> 30000 nM
same,Ki,[29],> 15900 nM
same,CL free,Rattus norvegicus [30],618 mL/min/kg
same,Activity,Homo sapiens [31],Active
